Like-named read-outs stand apart in the source and are kept apart here.
Legend:
IRT1 = molecular target: T1, IRT1 (Arabidopsis thaliana, UniProt Q38856); test: 55Fe uptake in fet3 fet4 yeast expressing IRT1; type: cell-based; details: metal at 100-fold excess
T1 construct: contain a single 1017 bp open reading frame capable of encoding a polypeptide of 339 amino acids; expressed in transfected cells; host or cells: S. cerevisiae fet3 fet4 strain DEY1453 carrying pIRT-1 (pFL61 library vector, phosphoglycerate kinase promoter)
T1 sequence (Q38856 9-347 limits assumed): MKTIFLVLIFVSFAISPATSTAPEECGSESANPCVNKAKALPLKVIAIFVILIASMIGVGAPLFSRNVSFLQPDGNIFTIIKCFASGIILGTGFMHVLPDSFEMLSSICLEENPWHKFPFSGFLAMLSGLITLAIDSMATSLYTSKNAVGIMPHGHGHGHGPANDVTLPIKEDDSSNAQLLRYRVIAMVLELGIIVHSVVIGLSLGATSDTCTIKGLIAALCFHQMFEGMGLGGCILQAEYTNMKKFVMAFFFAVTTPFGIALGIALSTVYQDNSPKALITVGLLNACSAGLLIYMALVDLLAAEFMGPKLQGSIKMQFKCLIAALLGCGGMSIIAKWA

[1] = molecular target: T2, low affinity zinc uptake system (Zrt2p) (Saccharomyces cerevisiae, UniProt Q12436); type: cell-based; details: for effect on zinc uptake by the low affinity system / uptake rate of radioactive zinc, % of the control rate: 200 μM added metal, zrt1 mutant cells; for inhibition of pMC4- and pOE2-dependent zinc uptake activity: ZRT2 overexpressing zrt1 cells; for zinc accumulation: 30° C., 10 μM 65Zn
T2 construct: endogenous in cells; host or cells: S. cerevisiae ZHY1 (zrt1::LEU2) and zinc-replete DY1457; some values come from ZHY1 carrying pMC4 (multicopy genomic ZRT2) or pOE2 (ZRT2 ORF under GAL1)
T2 sequence (Q12436 whole entry): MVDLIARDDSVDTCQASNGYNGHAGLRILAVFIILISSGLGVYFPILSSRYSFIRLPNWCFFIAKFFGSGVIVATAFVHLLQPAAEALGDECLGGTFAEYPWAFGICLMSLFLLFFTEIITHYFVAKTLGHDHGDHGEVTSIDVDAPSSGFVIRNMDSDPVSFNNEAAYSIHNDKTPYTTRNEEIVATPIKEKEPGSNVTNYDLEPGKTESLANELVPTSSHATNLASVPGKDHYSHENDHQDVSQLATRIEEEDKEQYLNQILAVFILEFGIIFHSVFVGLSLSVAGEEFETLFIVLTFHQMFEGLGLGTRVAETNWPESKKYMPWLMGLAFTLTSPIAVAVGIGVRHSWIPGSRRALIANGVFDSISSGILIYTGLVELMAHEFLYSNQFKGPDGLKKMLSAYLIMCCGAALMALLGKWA
Protocol: Zinc uptake assays were performed as described previously for iron uptake (Eide et al. J. Biol. Chem. 267:20774-20781) except that ^65ZnCl2 (Amersham Corp., Arlington Heights, Ill.) and LZM-EDTA were substituted for ^59FeCl3 and LIM-EDTA. Cells were incubated at 30° C. with ^65Zn for five minutes, filtered, and washed with 10 ml ice-cold SSW. Cell-associated radioactivity was measured by liquid scintillation. Kinetic values were derived using KinetAsyst software (IntelliKinetics, Princeton, N.J.). Zinc accumulation was measured in cells grown in LZM medium supplemented with […] ^65Zn plus nonradioactive zinc to the indicated final concentration. Aliquots (0.5 ml) were filtered, washed with 10 ml ice-cold SSW, and counted by liquid scintillation. b-galactosidase activity was assayed as described by Guarente (Guarante, L. (1983) Methods Enzymol101:181-191).
Zinc uptake assays were performed as described previously for iron uptake (Eide et al. (1992) J. Biol. Chem. 267:20774-20781) except that ^65ZnCl2 (Amersham) and LZM-EDTA were substituted for ^59FeCI3 and LIM-EDTA, respectively. Cells were incubated for 5 minutes in LZM-EDTA plus the indicated concentration of ^65Zn, collected on glass fiber filters (Schleicher and Schuell), washed with 10 ml ice-cold SSW (1 mM EDTA, 20 mM trisodium citrate, 1 mM KH2PO4, 1 mM CaCl2, 5 mM MgSO4, 1 mM NaCl pH 4.2), and cell-associated radioactivity was measured by liquid scintillation counting. Cells were starved for glucose by incubating them in LZM-EDTA prepared without glucose for one hour at 30° C. prior to assay. Michaelis-Menten kinetic values were determined using […] software (Intellikinetics, Princeton, N.J.). Stock solutions of the chloride salts of Co, Cu, Mg, Mn, and Ni were prepared in distilled water at a concentration of 100 mM. The nonradioactive ZnCl2 stock was prepared at 100 mM in 0.02 N HCl and the FeCl3 stock was prepared at 50 mM in 0.1 N HCl. The statistical significance of the differences of values relative to controls was determined with one-way analysis of variance (ANOVA) followed by a Dunnett multiple comparison test. β-galactosidase activity was assayed in cells harvested at an OD600 of 0.5-2.0 as described by Guarente (Guarente, L. (1983) Methods Enzymol. 101:181-191) and activity is expressed as the change in absorbance at 420 nm×1000 divided by (min×ml of culture used×OD600 of the culture). Cell-associated zinc was measured in parallel cultures supplemented with tracer amounts of ^65Zn (10 μM) and nonradioactive zinc to the indicated final concentration. Aliquots (0.5 ml) were filtered, washed with 10 ml ice-cold SSW, and radioactivity measured by liquid scintillation.
To determine if ZRT1 plays a role in zinc uptake, the biochemical properties of this process in wild type cells were first characterized. […] Wild type (FIG. 10, DY1457, squares) and zrt1 mutant (FIG. 10, ZHY1, circles) cells were grown to exponential phase in zinc-limited (open symbols, FIG. 10) and zinc-replete (FIG. 10, closed symbols) media and assayed for zinc uptake rate over a range ZnSO4 concentrations. Zinc-limited media was LZM+10 μM zinc for the wild type and LZM+500 μM zinc for the mutant. Zinc-replete conditions were LZM+1000 μM for both strains. ZHY1(pOE1) cells (FIG. 10, triangles) were grown in zinc-replete SDgal medium.
Mutant zrt1 (ZHY1) cells were grown in LZM supplemented with 1 mM ZnCl2. Cells were incubated with 10 μM ^65Zn for the indicated times at either […]

[2] = zrt1 cells grown in SD glucose supplemented with 2 mM ZnCl2

In the case of [Cl-].[Cl-].[Co+2] [Co], the “inhibition of IRT1-dependent iron uptake” value (IRT1) is reported as “inhibit IRT1-dependent iron uptake” and the “effect on zinc uptake by the low affinity system” value (shortened to “effect on zinc uptake”) ([1]; 20 μM 65Zn, five minutes) is reported as “did not diminish zinc uptake”.
In the case of [Cl][Cu][Cl] [Cu], the “uptake rate of radioactive zinc, % of the control rate” value (“uptake rate … % of the control rate” for short) ([1]; 20 μM 65Zn, five minutes) is reported as 32% and the “inhibition of pMC4- and pOE2-dependent zinc uptake activity” value [1] is reported as “inhibited”.
In the case of [Fe+2] [Fe(II)], the “uptake rate … % of the control rate” value ([1]; 20 μM 65Zn, five minutes) is reported as 79% and the “inhibition of pMC4- and pOE2-dependent zinc uptake activity” value [1] is reported as “inhibited”.
With [Cl][Fe]([Cl])[Cl] [Fe(III)] the “effect on zinc uptake” value ([1]; 20 μM 65Zn, five minutes) was “did not diminish zinc uptake”.
For [Cl][Mn][Cl] [Mn], the “inhibition of IRT1-dependent iron uptake” value (IRT1) was “inhibit IRT1-dependent iron uptake” and the “effect on zinc uptake” value ([1]; 20 μM 65Zn, five minutes) was “did not diminish zinc uptake”.
[Cl][Ni][Cl] [Ni] was tested, and the “effect on zinc uptake” value ([1]; 20 μM 65Zn, five minutes) was “did not diminish zinc uptake”.
For [Zn+2] [zinc], the “inhibition of IRT1-dependent iron uptake” value (IRT1) was “inhibit IRT1-dependent iron uptake”, the “control rate of zinc uptake” value ([1]; 20 μM 65Zn, five minutes, zrt1 (ZHY1) grown in LZM + 1 mM ZnCl2, no other metal) was 0.9 pmol/min/10^6 cells and the “uptake rate … % of the control rate” value ([1]; 20 μM 65Zn, five minutes) was “approximately 10%”. For the same compound, the “rate of zinc uptake of pMC4 transformants relative to vector control” value ([1]; ZHY1 (zrt1) with pMC4 vs YEp24, SD glucose, all 65Zn concentrations tested) was “approximately 15 fold”, the Vmax ([1]; ZHY1 (zrt1) with plasmid pMC4, SD glucose, mean ± SE) was 28 ± 1 pmol/min/10^6 and the Km ([1]; ZHY1 (zrt1) with plasmid pMC4, SD glucose, total zinc, mean ± SE, read-out: Km) was 8 ± 0.4 µM. It also gave a Vmax ([1]; ZHY1 (zrt1) with plasmid pOE2 (GAL1-ZRT2), SD galactose, mean ± SE) of 17 ± 2 pmol/min/10^6, a Km ([1]; ZHY1 (zrt1) with plasmid pOE2 (GAL1-ZRT2), SD galactose, total zinc, mean ± SE, read-out: Km) of 3.6 ± 0.1 µM and a Vmax ([1]; ZHY1 (zrt1) with vector (YEp24, control for pMC4), SD glucose, mean ± SE) of 2.2 ± 0.1 pmol/min/10^6. The Km ([1]; ZHY1 (zrt1) with vector (YEp24, control for pMC4), SD glucose, total zinc, mean ± SE, read-out: Km) was 9.5 ± 0.8 µM, the Vmax ([1]; ZHY1 (zrt1) with vector (pRS316-GAL1, control for pOE2), SD galactose, mean ± SE) was 2.0 ± 0.1 pmol/min/10^6 and the Km ([1]; ZHY1 (zrt1) with vector (pRS316-GAL1, control for pOE2), SD galactose, total zinc, mean ± SE, read-out: Km) was 10 ± 1 µM. For the same compound, the Km ([1]; calculated free zinc, read-out: apparent Km of the low affinity system, free zinc) was ~0.1 µM, the zinc accumulation ([1]; glucose-starved zrt1 cells, five minutes) was “no detectable zinc accumulation” and the Km ([1]; total zinc, read-out: apparent Km of the low affinity system) was 10 µM. It also gave a Vmax ([1]; wild type, high growth medium [Zn] (LZM + 1.5 mM ZnCl2), mean ± SE) of 0.60 ± 0.03 pmol/min/10^6, a Km ([1]; wild type, high growth medium [Zn] (LZM + 1.5 mM ZnCl2), total zinc, mean ± SE, read-out: Km) of 15 ± 3 µM and a Km ([1]; wild type, zinc-replete cells (LZM+1000 μM), read-out: apparent Km of zinc uptake) of 10 ± 1 µM. The “Vmax of zinc uptake” value ([1]; zinc-replete cells) was 2 pmol/min/10^6 cells, the Vmax ([1]; zrt1, high growth medium [Zn], mean ± SE) was 0.52 ± 0.04 pmol/min/10^6 and the Km ([1]; zrt1, high growth medium [Zn], total zinc, mean ± SE, read-out: Km) was 10 ± 1 µM. For the same compound, the zinc uptake rate [1, 2] was 0.12 pmol/min/106 cells, the “zinc uptake rate relative to untreated cells” value [1, 2] was 7% and the zinc uptake rate ([1]; zrt1 cells grown in zinc-replete SD glucose, assayed at 10, M 65Zn) was 1.7 pmol/min/10^6 cells. The zinc accumulation ([1]; zrt1 cells incubated with glucose, five minutes) was 3.7 pmol/10^6 cells, the “Vmax of zinc uptake” value ([1]; zrt1 mutant cells grown in zinc-limiting and zinc-replete media) was 1-2 pmol/min/10^6 cells and the Km ([1]; zrt1 mutant cells grown in zinc-limiting and zinc-replete media, read-out: apparent Km of zinc uptake) was 10 ± 1 µM.
